Experimental data taken from article PMC10539361, “Allosteric modulation of the fish taste receptor type 1 (T1R) family by the extracellular chloride ion” (Scientific Reports, 2023).

Target: T1, mfT1R2a/mfT1R3 (Oryzias latipes, UniProt Q2MHK2+Q2MHK5)
T1 sequence (Q2MHK5 20-819): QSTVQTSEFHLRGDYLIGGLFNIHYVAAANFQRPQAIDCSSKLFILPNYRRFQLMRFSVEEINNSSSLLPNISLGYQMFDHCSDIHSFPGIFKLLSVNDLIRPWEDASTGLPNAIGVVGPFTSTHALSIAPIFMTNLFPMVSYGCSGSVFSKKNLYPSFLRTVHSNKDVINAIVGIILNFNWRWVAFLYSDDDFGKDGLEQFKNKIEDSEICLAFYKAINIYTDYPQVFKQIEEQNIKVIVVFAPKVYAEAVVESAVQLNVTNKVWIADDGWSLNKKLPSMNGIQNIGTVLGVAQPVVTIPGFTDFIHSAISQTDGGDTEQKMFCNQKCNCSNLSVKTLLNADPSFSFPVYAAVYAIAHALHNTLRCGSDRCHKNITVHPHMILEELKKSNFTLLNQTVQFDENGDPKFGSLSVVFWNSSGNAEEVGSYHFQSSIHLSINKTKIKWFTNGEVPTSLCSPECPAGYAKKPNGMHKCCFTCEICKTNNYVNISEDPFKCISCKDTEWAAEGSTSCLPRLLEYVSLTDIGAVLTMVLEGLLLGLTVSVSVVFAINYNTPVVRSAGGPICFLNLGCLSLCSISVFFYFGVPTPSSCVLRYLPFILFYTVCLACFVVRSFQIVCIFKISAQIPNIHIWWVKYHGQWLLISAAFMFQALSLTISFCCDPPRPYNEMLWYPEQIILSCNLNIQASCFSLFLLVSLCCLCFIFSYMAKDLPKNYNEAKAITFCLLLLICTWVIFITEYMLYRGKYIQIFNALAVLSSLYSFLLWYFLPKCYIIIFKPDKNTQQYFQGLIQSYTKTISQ
T1 sequence (Q2MHK2 20-853): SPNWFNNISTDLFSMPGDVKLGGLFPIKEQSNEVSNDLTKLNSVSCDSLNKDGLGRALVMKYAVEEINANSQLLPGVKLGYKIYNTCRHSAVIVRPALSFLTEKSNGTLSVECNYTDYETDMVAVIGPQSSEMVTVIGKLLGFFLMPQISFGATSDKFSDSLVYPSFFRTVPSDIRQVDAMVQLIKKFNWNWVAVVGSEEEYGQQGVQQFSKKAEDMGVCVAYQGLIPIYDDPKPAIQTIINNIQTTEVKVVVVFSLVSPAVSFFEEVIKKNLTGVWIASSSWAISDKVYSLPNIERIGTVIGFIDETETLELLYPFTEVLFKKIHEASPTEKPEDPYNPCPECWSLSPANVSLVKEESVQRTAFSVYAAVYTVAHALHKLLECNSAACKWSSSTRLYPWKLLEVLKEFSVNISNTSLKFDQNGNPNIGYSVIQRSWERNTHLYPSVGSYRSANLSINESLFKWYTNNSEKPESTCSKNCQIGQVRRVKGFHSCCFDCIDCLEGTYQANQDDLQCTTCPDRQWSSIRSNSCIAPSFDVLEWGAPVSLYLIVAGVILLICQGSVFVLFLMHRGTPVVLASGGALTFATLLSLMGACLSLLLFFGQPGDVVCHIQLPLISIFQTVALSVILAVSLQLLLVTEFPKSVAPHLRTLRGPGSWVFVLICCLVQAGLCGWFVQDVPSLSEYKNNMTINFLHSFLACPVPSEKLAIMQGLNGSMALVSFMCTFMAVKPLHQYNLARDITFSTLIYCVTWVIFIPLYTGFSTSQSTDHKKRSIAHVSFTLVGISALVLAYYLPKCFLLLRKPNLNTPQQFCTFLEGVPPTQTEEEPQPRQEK
Assay: Effect of anions, cations and osmotic pressure on cellular responses, cells in 10 mM Cl- buffer, mfT1R2a/mfT1R3
Format: cell-based, medaka fish
Conditions: for response to fixed concentration of L-Gln on coapplication: coapplied with 200 µM L-Gln, final [Cl-]o up to 60 mM
Description: Cells were seeded in 96-well plates coated with ε-poly-L-lysine at approximately 70,000 cells per well. […] Fluorescence changes were monitored at 2 s intervals, as described above. […] Three independent experiments were conducted for each receptor, and representative results are shown as the mean ± SEM (n = 3 replicates). Statistical tests were conducted using KyPlot version 6.0 (KyensLab Inc., Tokyo, Japan). Statistical significance was set at p < 0.05.

Structure (SMILES) | response to fixed concentration of L-Gln on coapplication (cells in 10 mM Cl- buffer) | additional anion concentration needed to significantly increase the response intensity to L-Gln (added to 10 mM Cl- buffer with 200 µM L-Gln) | cellular response to the salt alone (without agonist, cells in 10 mM Cl- buffer)
O=C([O-])[C@H](O)[C@@H](O)[C@H](O)[C@H](O)CO.[Na+] [Na-gluconate, sodium gluconate] | did not enhance |  | 
[Cl-].[Na+] [NaCl] | enhanced | 30 mM | did not elicit
